Assay results published in patent US20250198442A1, “GAMMA POLYGLUTAMATED PEMETREXED AND USES THEREOF” (L.E.A.F. HOLDINGS GROUP LLC, priority 2020, published 2025).

Columns and labels:
[1] = test system: NCI H2342 non-small cell lung cancer (NSCLC), adenocarcinoma subtype; assay: CellTiter-Glo cell viability dose response, NCI H2342; assay type: cell-based, human; details: H2342, 48 hours of treatment, rank among test articles
Description: (§1) The CTG assay uses luciferase as a readout.
(§2) Luciferase luminescence were recorded for each well.

[2] = test system: HT-29 (colon cancer); assay: CellTiter-Glo cell viability dose response, HT-29; assay type: cell-based, human; details: HT-29, 48 hours, rank among test articles
Description: as §1, §2

[3] = test system: CCD841 colon epithelium cells; assay: Toxicity to CCD841 colon epithelium cells; assay type: cell-based; details: 16 nM, 32 nM, 64 nM and 128 nM, 48 hours
Excerpt: (§3) Methodologies used for cell line AML12 (non-cancerous liver cells) and CCD841 (non-cancerous colon epithelial cells) are similar to the methods used for cancer cells.

[4] = test system: AML12 liver cells; assay: Toxicity to AML12 liver cells; assay type: cell-based; details: all doses studied (16 to 128 nM), 48 hours
Excerpt: as §3

Row | Structure (SMILES) | potency as measured by IC50 [1] | potency (cell viability) [2] | decrease in the number of CCD841 colon epithelium cells [3] [%] | reduction in the AML12 liver cell counts [4]
1 | Nc1nc(=O)c2c(CCc3ccc(C(=O)N[C@@H](CCC(=O)N[C@@H](CCC(=O)N[C@@H](CCC(=O)N[C@@H](CCC(=O)N[C@@H](CCC(=O)N[C@@H](CCC(=O)O)C(=O)O)C(=O)O)C(=O)O)C(=O)O)C(=O)O)C(=O)O)cc3)c[nH]c2[nH]1 [gG6, pemetrexed L-gamma hexaglutamate] | least potent | least potent |  | 
2 | Nc1nc2[nH]cc(CCc3ccc(C(=O)N[C@@H](CCC(=O)O)C(=O)O)cc3)c2c(=O)[nH]1 [pemetrexed] |  |  | ≥ 50 | approximately 40%
